Reference: patent US9107926B2, “Mutant selectivity and combinations of a phosphoinositide 3-kinase inhibitor compound and chemotherapeutic agents for the treatment of cancer” (Genentech, Inc., priority 2012, dated 2015)

Assays:
[1] = test system: INK-134; assay: CellTiter-Glo cell proliferation assay; type: cell-based; details: Glioma, Helical-HET.545E > D, HET.1043M > I
[2] = test system: BT549; assay: CellTiter-Glo cell proliferation assay; type: cell-based; details: Homo sapiens, BT-549, Breast, PTEN
[3] = test system: CAL51; assay: CellTiter-Glo cell proliferation assay; type: cell-based; details: Homo sapiens, CAL-51, Breast, PTEN/HET.542E > K
Protocol: (§1) Cell Culture Medium: RPMI or DMEM high glucose, 10% Fetal Bovine Serum, 2 mM L-Glutamine, P/S. Incubate O/N (overnight) at 37° C., 5% CO2.
(§2) Drug Addition to Cells, Cell Plate (1:10 dilution): Add 6 μl of media+compound directly to cells (54 μl of media on the cells already). Incubate 3 days at 37° C., 5% CO2 in an incubator that will not be opened often.
(§3) Day 5—Develop Plates, Thaw Cell Titer Glo Buffer at room temperature: Remove Cell Plates from 37° C. and equilibrate to room temperature for about 30 minutes. Add Cell Titer-Glo® Buffer to Cell Titer-Glo® Substrate (bottle to bottle). Add 30 μl Cell Titer-Glo® Reagent (Promega cat.#G7572) to each well of cells. Place on plate shaker for about 30 minutes. Read luminescence on Analyst HT Plate Reader (half second per well).

[4] = test system: CAMA-1; assay: CellTiter-Glo cell proliferation assay; type: cell-based; details: Homo sapiens, Breast, PTEN*
[5] = test system: HCC-1143; assay: CellTiter-Glo cell proliferation assay; type: cell-based; details: Homo sapiens, HCC1143, Breast, WT
[6] = test system: HCC-1428; assay: CellTiter-Glo cell proliferation assay; type: cell-based; details: Homo sapiens, HCC1428, Breast, WT
[7] = test system: HCC-202; assay: CellTiter-Glo cell proliferation assay; type: cell-based; details: HCC202, Breast, Helical-HET.545E > K, HET.866L > F, HET.391I > M
[8] = test system: HCC1954; assay: CellTiter-Glo cell proliferation assay; type: cell-based; details: Homo sapiens, Breast, Kinase-HOM.1047H > L
Protocol: as §1, §2, §3

[9] = test system: MCF7-neo/HER2; assay: CellTiter-Glo cell proliferation assay; type: cell-based; details: Breast, Helical-HET.545E > K
Protocol: as §1, §2, §3

[10] = test system: MDA-MB-453; assay: CellTiter-Glo cell proliferation assay; type: cell-based; details: Homo sapiens, Breast, Kinase-HET.1047H > R, HET.350D > N
[11] = test system: MFM223; assay: CellTiter-Glo cell proliferation assay; type: cell-based; details: Homo sapiens, MFM-223, Breast, Kinase-HET.1047H > R, HET.350D > N
Protocol: as §1, §2, §3

[12] = test system: MDST8; assay: CellTiter-Glo cell proliferation assay; type: cell-based; details: Colon, PTEN/B-Raf
[13] = test system: U87MG; assay: CellTiter-Glo cell proliferation assay; type: cell-based; details: Homo sapiens, U-87 MG, Glioma, PTEN
[14] = test system: U-118MG; assay: CellTiter-Glo cell proliferation assay; type: cell-based; details: Homo sapiens, Glioma, PTEN
[15] = test system: SF268; assay: CellTiter-Glo cell proliferation assay; type: cell-based; details: Homo sapiens, SF-268, Glioma, WT
[16] = test system: HOP18; assay: CellTiter-Glo cell proliferation assay; type: cell-based; details: Homo sapiens, HOP-18, Lung(NSCLC), K-RAS
[17] = test system: H358; assay: CellTiter-Glo cell proliferation assay; type: cell-based; details: Homo sapiens, NCI-H358, Lung(NSCLC), K-RAS
[18] = test system: SW1573; assay: CellTiter-Glo cell proliferation assay; type: cell-based; details: Homo sapiens, Lung(NSCLC), K-RAS
[19] = test system: H2009; assay: CellTiter-Glo cell proliferation assay; type: cell-based; details: Homo sapiens, NCI-H2009, Lung(NSCLC), K-RAS
[20] = test system: EBC-1; assay: CellTiter-Glo cell proliferation assay; type: cell-based; details: Homo sapiens, Lung(NSCLC), K-RAS
[21] = test system: H2030; assay: CellTiter-Glo cell proliferation assay; type: cell-based; details: Homo sapiens, NCI-H2030, Lung(NSCLC), K-RAS
[22] = test system: H23; assay: CellTiter-Glo cell proliferation assay; type: cell-based; details: Homo sapiens, NCI-H23, Lung(NSCLC), K-RAS
[23] = test system: H650; assay: CellTiter-Glo cell proliferation assay; type: cell-based; details: Homo sapiens, NCI-H650, Lung(NSCLC), K-RAS
[24] = test system: H520; assay: CellTiter-Glo cell proliferation assay; type: cell-based; details: Homo sapiens, NCI-H520, Lung(NSCLC), PTEN
[25] = test system: H1781; assay: CellTiter-Glo cell proliferation assay; type: cell-based; details: NCI-H1781, Lung(NSCLC), PTEN
[26] = test system: H1703; assay: CellTiter-Glo cell proliferation assay; type: cell-based; details: Homo sapiens, NCI-H1703, Lung(NSCLC), WT
[27] = test system: H661; assay: CellTiter-Glo cell proliferation assay; type: cell-based; details: Homo sapiens, NCI-H661, Lung(NSCLC), WT
[28] = test system: H1568; assay: CellTiter-Glo cell proliferation assay; type: cell-based; details: NCI-H1568, Lung(NSCLC), WT
[29] = test system: H522; assay: CellTiter-Glo cell proliferation assay; type: cell-based; details: Homo sapiens, NCI-H522, Lung(NSCLC), WT
[30] = test system: C32; assay: CellTiter-Glo cell proliferation assay; type: cell-based; details: Homo sapiens, Melanoma, PTEN/B-Raf
[31] = test system: SKOV3; assay: CellTiter-Glo cell proliferation assay; type: cell-based; details: Homo sapiens, SK-OV-3, Ovarian, Kinase-HET.1047H > R, HET.350D > N
Protocol: as §1, §2, §3

[32] = test system: FUOV1; assay: CellTiter-Glo cell proliferation assay; type: cell-based; details: Ovarian, WT
Protocol: as §1, §2, §3

[33] = test system: TOV21GX1; assay: CellTiter-Glo cell proliferation assay; type: cell-based; details: Ovarian, PTEN/HET.1047H > Y
[34] = test system: PC3; assay: CellTiter-Glo cell proliferation assay; type: cell-based; details: Homo sapiens, PC-3, Prostate, PTEN
[35] = test system: Endocrine-resistant MCF7-ARO cells; assay: 4 day CellTiter-Glo assay in endocrine resistant cells; type: cell-based, human; details: obtained by letrozole dose escalation over about 4 months
[36] = test system: MCF-7 breast tumor xenografts; assay: In vivo mouse tumor xenograft efficacy; design: species or system mice
Protocol: Fulvestrant was dosed subcutaneously with 5 mg of drug once a week (qw) for 3 weeks.
Paclitaxel was dosed intravenously every 4 days for 5 cycles with 7.5 mg/kg of drug.
Xenografts were initiated with cancer cells. […] Volume was calculated using the formula: […]

[37] = target: PI3K alpha H1047R mutant (Homo sapiens, UniProt P42336, H1047R); details: relative to PI3K alpha
Protocol: After an incubation time of 30 minutes at room temperature, the reactions were stopped by the addition of GRP-1 and PIP3-TAMRA probe (Echelon-Inc., Salt Lake City, Utah.) 100 nM and 5 nM final concentrations respectively. Read with standard cut-off filters for the rhodamine fluorophore (λex=530 nm; λem=590 nm) in 384-well black low volume Proxiplates® (PerkinElmer, Wellesley, Mass.) Fluorescence polarization values were plotted as a function of the protein concentration. EC50 values were obtained by fitting the data to a four-parameter equation using KaleidaGraph® software (Synergy software, Reading, Pa.). This experiment also establishes the appropriate protein concentration to use in subsequent competition experiments with inhibitors.
After an incubation time of 30 minutes at room temperature, the reactions were stopped by the addition of GRP-1 and PIP3-TAMRA probe (Echelon-Inc., Salt Lake City, Utah.) 100 nM and 5 nM final concentrations respectively.
The compound was serially diluted in 100% DMSO. The kinase reaction was incubated for 1 h at room temperature, and the reaction was terminated by the addition of PBS. IC50 values were subsequently determined using sigmoidal dose-response curve fit (variable slope).

[38] = test system: SW48 PIK3CA H1047R knock-in mutant subclone; assay: four day CellTiter-Glo viability assay, SW48 isogenic cell line set; details: Homo sapiens, SW48, 96 h, read-out: Viability EC50
Description: SW48 parental cells and knock-in mutant subclones harboring common PIK3CA hotspot mutations E545K or H1047R were obtained from Horizon Discovery.

Sequence of PI3K alpha H1047R mutant (P42336 whole entry H1047R): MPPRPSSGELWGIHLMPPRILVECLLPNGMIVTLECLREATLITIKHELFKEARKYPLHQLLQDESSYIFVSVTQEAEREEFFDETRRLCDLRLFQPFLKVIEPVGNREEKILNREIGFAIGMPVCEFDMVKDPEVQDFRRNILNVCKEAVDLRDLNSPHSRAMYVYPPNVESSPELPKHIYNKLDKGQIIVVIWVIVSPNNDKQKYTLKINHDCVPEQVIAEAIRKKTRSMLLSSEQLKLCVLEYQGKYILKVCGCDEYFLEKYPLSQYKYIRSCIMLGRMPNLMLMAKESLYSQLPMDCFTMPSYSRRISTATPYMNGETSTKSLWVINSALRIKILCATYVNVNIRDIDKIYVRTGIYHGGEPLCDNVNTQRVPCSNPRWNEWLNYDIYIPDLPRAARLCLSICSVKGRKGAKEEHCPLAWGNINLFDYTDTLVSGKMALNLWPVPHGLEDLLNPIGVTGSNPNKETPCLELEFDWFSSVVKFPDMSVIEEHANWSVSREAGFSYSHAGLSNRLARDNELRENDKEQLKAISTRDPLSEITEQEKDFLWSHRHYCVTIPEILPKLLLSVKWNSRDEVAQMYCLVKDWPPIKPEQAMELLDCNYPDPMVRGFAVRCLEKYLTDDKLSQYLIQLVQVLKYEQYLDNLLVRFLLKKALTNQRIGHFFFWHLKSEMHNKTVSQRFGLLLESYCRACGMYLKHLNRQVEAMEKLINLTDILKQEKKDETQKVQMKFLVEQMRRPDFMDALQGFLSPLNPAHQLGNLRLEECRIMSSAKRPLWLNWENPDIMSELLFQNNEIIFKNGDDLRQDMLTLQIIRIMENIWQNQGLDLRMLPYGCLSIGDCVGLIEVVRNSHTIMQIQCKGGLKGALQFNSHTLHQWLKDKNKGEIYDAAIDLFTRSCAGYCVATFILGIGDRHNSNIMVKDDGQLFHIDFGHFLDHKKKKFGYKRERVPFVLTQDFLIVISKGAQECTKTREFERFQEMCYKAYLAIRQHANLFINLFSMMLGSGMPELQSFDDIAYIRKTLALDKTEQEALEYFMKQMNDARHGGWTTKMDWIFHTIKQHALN
Sequence of PI3K alpha H1047R mutant (P27986 whole entry partner): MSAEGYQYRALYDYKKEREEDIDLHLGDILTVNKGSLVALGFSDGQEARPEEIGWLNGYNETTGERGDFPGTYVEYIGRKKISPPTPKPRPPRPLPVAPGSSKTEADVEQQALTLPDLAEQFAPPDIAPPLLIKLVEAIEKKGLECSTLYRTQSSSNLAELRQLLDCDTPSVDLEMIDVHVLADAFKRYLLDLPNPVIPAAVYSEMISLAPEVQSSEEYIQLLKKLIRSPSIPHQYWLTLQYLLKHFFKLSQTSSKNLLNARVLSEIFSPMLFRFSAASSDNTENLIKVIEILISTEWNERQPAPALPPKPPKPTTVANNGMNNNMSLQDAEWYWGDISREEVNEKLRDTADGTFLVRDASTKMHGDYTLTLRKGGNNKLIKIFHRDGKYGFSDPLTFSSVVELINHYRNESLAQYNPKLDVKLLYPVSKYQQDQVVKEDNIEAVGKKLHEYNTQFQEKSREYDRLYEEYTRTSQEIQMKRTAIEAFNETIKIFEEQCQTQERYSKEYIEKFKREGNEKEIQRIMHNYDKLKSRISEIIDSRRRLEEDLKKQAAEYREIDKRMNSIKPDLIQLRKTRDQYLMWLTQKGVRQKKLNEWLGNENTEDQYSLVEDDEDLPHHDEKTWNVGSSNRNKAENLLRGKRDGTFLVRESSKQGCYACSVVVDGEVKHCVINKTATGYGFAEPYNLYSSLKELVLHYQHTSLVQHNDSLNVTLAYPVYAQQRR

Cc1nc(-c2cn3c(n2)-c2ccc(-c4cnn(C(C)(C)C(N)=O)c4)cc2OCC3)n(C(C)C)n1 [GDC-0032, 2-(4-(2-(1-isopropyl-3-methyl-1H-1,2,4-triazol-5-yl)-5,6-dihydrobenzo[f]imidazo[1,2-d][1,4]oxazepin-9-yl)-1H-pyrazol-1-yl)-2-methylpropanamide]
EC50 [1]: 0.976 µM
EC50 [2]: 1.2 µM
EC50 [3]: 0.326 µM
EC50 [4]: 5.62 µM
EC50 [5]: 2.97 µM
EC50 [6]: 10 µM
EC50 [7]: 0.018 µM
EC50 [8]: 0.102 µM
EC50 [9]: 0.178 µM
EC50 [10]: 0.044 µM
EC50 [11]: 0.211 µM
EC50 [12]: 4.01 µM
EC50 [13]: 1.02 µM
EC50 [14]: 3.2 µM
EC50 [15]: 1.07 µM
EC50 [16]: 0.077 µM
EC50 [17]: 0.22 µM
EC50 [18]: 0.285 µM
EC50 [19]: 0.71 µM
EC50 [20]: 1.66 µM
EC50 [21]: 2.31 µM
EC50 [22]: 2.74 µM
EC50 [23]: 10 µM
EC50 [24]: 0.264 µM
EC50 [25]: 0.561 µM
EC50 [26]: 0.136 µM
EC50 [27]: 0.497 µM
EC50 [28]: 10 µM
EC50 [29]: 10 µM
EC50 [30]: 5.81 µM
EC50 [31]: 0.076 µM
EC50 [32]: 0.062 µM
EC50 [33]: 10 µM
EC50 [34]: 0.864 µM
sensitivity of endocrine-resistant cells [35]: sensitive to GDC-0032
tumor volume change ([36]; PO daily (QD), 21 days, nude mice): dose-dependent decrease in tumor volume
tumor response ([36]; all doses of GDC-0032 tested, versus vehicle): Increased tumor regressions
PI3K alpha H1047R mutant [37]: 0.4x
EC50 [38]: 0.008 µM
